Measurements from patent US20160237160A1, “ANTI-TWEAKR ANTIBODIES AND USES THEREOF” (BAYER PHARMA AKTIENGESELLSCHAFT, priority 2013, published 2016).
Values belong to the molecule of their own block, whether it stands above or below them.

Tests used:
[1] = tested on: SCaBER xenograft (bladder cancer), NMRI nude mice; assay: Xenograft anti-tumor efficacy; type: in vivo; details: final tumor weight, TPP-2090 10 mg/kg twice weekly for 4 weeks
[2] = tested on: Ku-19-19 xenograft (bladder cancer); assay: Xenograft anti-tumor efficacy; type: in vivo, mice; details: final tumor weight, TPP-2090 10 mg/kg twice weekly for 4 weeks
Protocol: (§1) After tumor growth to a size of approximately 40 mm^2 mice were randomized into control and treatment groups with a respective group size of n=8-10. Mice were treated with various doses of anti-TWEAKR antibodies diluted in PBS by intravenous injection (i.v.) into the tail vein with a twice per week schedule (q4dx3: applications twice per week, three applications in total; q4dx8: applications twice per week, eight applications in total). Combination therapy partners such as Regorafenib (10 mg/kg daily, per os) and the PI3K-inhibitor 1 (10 mg/kg, BID, 2d on, 5d off (applications twice daily on two consecutive days, followed by five days without treatment), i.v.) were diluted in their respective formulations whereas the standard of care therapies Irinotecan (5 mg/kg, 4d on, 3d off (applications once daily on four consecutive days followed by three days without treatment) i.v.) and Paclitaxel (16 mg/kg, q7dx4 (applications once per week, four applications in total), i.v.) were diluted in 0.9% NaCl. Animals injected with PBS served as the control (vehicle) group. The applied volume of the compounds was 5 ml/kg body weight per mouse.
(§2) Tumor growth was monitored 2-3 times per week by caliper measurement (length×width in mm) as well as body weight (in g). […]

[3] = tested on: BXF1228 patient-derived bladder cancer model; assay: Xenograft anti-tumor efficacy; type: in vivo, mice; details: final tumor weight, TPP-2090 10 mg/kg twice weekly for 4 weeks
[4] = tested on: BXF1352 patient-derived bladder cancer model; assay: Xenograft anti-tumor efficacy; type: in vivo, mice; details: final tumor weight, TPP-2090 10 mg/kg twice weekly for 4 weeks
Protocol: as §1, §2

[5] = tested on: Co5896 patient-derived colorectal cancer model; assay: Xenograft anti-tumor efficacy; type: in vivo, mice; details: tumor weight, TPP-2090 10 mg/kg twice weekly for 4 weeks
Protocol: as §1
(§3) Tumor growth was monitored 2-3 times per week by caliper measurement (length×width in mm) as well as body weight (in g). At the end of study tumors were dissected, weighted and used for the calculation of tumor-to-control (T/C) ratios (mean tumor weight of treated animals divided by mean tumor weight of control/vehicle animals). […] 2×10^6 tumor cells in 100% Matrigel were s.c. inoculated in female nude mice. After 7d established tumors with a size of about 40 mm^2 were treated with 0.3 mg/kg, 1 mg/kg and 3 mg/kg of antibodies (i.v., q4dx3: applications twice per week, three applications in total).
(§4) Animal studies were conducted as described in example 8 for further human colorectal cancer tumor cell lines Colo205 and LoVo and for further human colorectal cancer patient-derived models Co7553, Co5896, Co5676, Co5841, CXF 1103 and CXF 533. […] The formulation of regorafenib is described in example 8.

[6] = tested on: Colo205 xenograft (colorectal cancer); assay: Xenograft anti-tumor efficacy; type: in vivo, mice; details: tumor weight, TPP-2090 10 mg/kg twice weekly for 4 weeks
Protocol: as §1, §3, §4

[7] = tested on: LoVo xenograft (colorectal cancer); assay: Xenograft anti-tumor efficacy; type: in vivo, mice; details: tumor weight, TPP-2090 10 mg/kg twice weekly for 4 weeks
Protocol: as §1, §3, §4

[8] = biological target: T1, TWEAKR protein (TPP-2305) (Homo sapiens, UniProt Q9NP84); assay: Biacore monovalent KD with TWEAKR protein; type: binding
T1 construct: TPP-2305; hTNFRSF12Aaa28-80; Human; 30R-AT080; 168; purchased Fitzgerald Inc 30R-AT080
Protocol: Binding affinities of anti-TWEAKR antibodies were determined by surface plasmon resonance analysis on a Biacore T100 instrument (GE Healthcare Biacore, Inc.). Antibodies were immobilized onto a CM5 sensor chip through an indirect capturing reagent, anti-human IgG(Fc). Reagents from the “Human Antibody Capture Kit” (BR-1008-39, GE Healthcare Biacore, Inc.) were used as described by the manufacturer. Anti-TWEAKR antibodies were injected at a concentration of 10 μg/ml at 10 μl/min for 10 sec.
Sensorgrams were generated after in-line reference cell correction followed by buffer sample subtraction. The dissociation equilibrium constant (KD) was calculated based on the ratio of association (kon) and dissociation rated (koff) constants, obtained by fitting sensorgrams with a first order 1:1 binding model.

[9] = tested on: 786-O cells; assay: FACS binding to cell surface; parameters: species or system human; details: 10 μg/ml
Protocol: (§5) To determine the binding characteristics of the anti-TWEAKR antibodies on mouse and human cancer cell lines, binding was tested by flow cytometry to a panel of cell lines. Adherent cells were washed twice with PBS without Ca and Mg (Biochrom #L1825: aqueous solution containing 8000 mg/l NaCl, 200 mg/l KCl, 1150 mg/l Na2HPO4, and 200 mg/l KH2PO4) and detached by enzyme-free PBS based cell dissociation buffer (Invitrogen). Cells were suspended at approximately 10^5 cells/well in FACS buffer (PBS without Ca/Mg, containing 3% FCS, Biochrom). Cells were centrifuged (250 g, 5 min, 4° C.) and supernatant discarded. Cells were resuspended in dilutions of the antibodies of interest (10 μg/ml in 80 μl if not indicated otherwise) in FACS buffer, and incubated on ice for 1 h. In the following cells were washed once with 1000 cold FACS buffer and 80 μl secondary antibody diluted at 1:150 (PE goat anti-human IgG, Dianova #109-115-098, or PE Goat Anti-Mouse IgG, Jackson Immuno Research #115-115-164) was added. After incubation for 1 h on ice cells were again washed with cold FACS buffer, resuspended in 1000 FACS buffer and analyzed by flow cytometry using a FACS-Array (BD Biosciences). Results are calculated as Geo Mean of fluorescence detected by the antibody of interest subtracted by background fluorescence as measured by detection with the secondary antibody alone. Values are scored according to the following system: Geo Mean−Geo Mean of secondary antibody alone >10: +, >100: ++, >1000: +++, 10000: ++++, close to category border in ( ).

[10] = tested on: A375 cells; assay: FACS binding to cell surface; parameters: species or system human; details: 10 μg/ml
Protocol: as §5

[11] = tested on: HT-29 cells; assay: FACS binding to cell surface; parameters: species or system human; details: HT29; 10 μg/ml
Protocol: as §5

[12] = tested on: NCI-H322 cells; assay: FACS binding to cell surface; parameters: species or system human; details: 10 μg/ml
Protocol: as §5

[13] = tested on: SK-OV-3 cells; assay: FACS binding to cell surface; parameters: species or system human; details: SKOV-3; 10 μg/ml
Protocol: as §5

[14] = tested on: WiDr cells; assay: FACS binding to cell surface; parameters: species or system human; details: 10 μg/ml
Protocol: as §5

[15] = tested on: 786-O cells; assay: Inhibition of proliferation (Cell Titer Glo); type: cell-based, human; details: 96h, 100 μg/ml antibody or *100 ng/ml TWEAK
Protocol: (§6) Therefore cells were plated in 96well plates in 750 assay medium (growth media from Table 21, plus 100 ng/ml IFN gamma for 786-O cells) at the following cell numbers: WiDr cells 3000 cells/well, 786-O cells 2500 cells/well. 24 h later cells were incubated with anti-TWEAKR antibodies (see Table 26), recombinant human TWEAK or isotype control IgG (not shown) at the indicated concentrations (antibodies from 0.03-300 μg/ml, TWEAK 100 or 300 ng/ml). At the time of antibody addition cell viability was determined in sister plates (time point zero): therefore 750/well CTG solution (Promega Cell Titer Glo solution (catalog # G755B and G756B) was added to the cells, incubated for 10 minutes and luminescence was read on a Victor V (Perkin Elmer). 96 h after incubation with the agents, cell viability was determined in the assay plates by addition of 100 μl/well CTG solution, 10 min incubation and reading of luminescence. Proliferation in control wells was calculated by subtracting time zero values from the luminescence values in the untreated control wells. % of cell proliferation was calculated in the compound treated wells as compared to the untreated control wells.
(§7) To evaluate, whether this strong anti-proliferative activity can also be observed in a broader cell panel, in addition LOVO, NCI-H1975, SW-480 (all 3000 cells/well), HT-29 (4000 cells/well), A253 and SK-OV3 (both 2500 cells/well) cells were incubated with 100 μg/ml anti-TWEAKR antibodies or TWEAK ligand for the time periods as indicated in Table 27. All cells were seeded in the growth media indicated in Table 21 and for all cells except for WiDr cells 100 ng/ml IFNgamma was added to the assay medium when seeding the cells. The percentage of growth inhibition for treated cells as compared to proliferation in untreated control cells was measured and calculated as described above. As shown in Table 27 the antibodies of the current invention are more efficacious as compared to other known antibodies in inhibiting proliferation of various cancer cell lines at 100 μg/ml. In most experiments the antibodies of the current invention also show equal or stronger efficacy as compared to 100-300 ng/ml TWEAK ligand. Thus, the antibodies described in this invention are unique in their activity to induce apoptosis and proliferation inhibition in a broad panel of cancer cell lines.

[16] = tested on: A253 cells; assay: Inhibition of proliferation (Cell Titer Glo); type: cell-based, human; details: 72h, 100 μg/ml antibody or **300 ng/ml TWEAK
Protocol: as §6, §7

[17] = tested on: HT-29 cells; assay: Inhibition of proliferation (Cell Titer Glo); type: cell-based, human; details: 24h, 100 μg/ml antibody or **300 ng/ml TWEAK
Protocol: as §6, §7

[18] = tested on: Lovo cells; assay: Inhibition of proliferation (Cell Titer Glo); type: cell-based, human; details: 72h, 100 μg/ml antibody or *100 ng/ml TWEAK
Protocol: as §6, §7

[19] = tested on: NCI-H1975 cells; assay: Inhibition of proliferation (Cell Titer Glo); type: cell-based, human; details: 72h, 100 μg/ml antibody or *100 ng/ml TWEAK
Protocol: as §6, §7

[20] = tested on: SK-OV3 cells; assay: Inhibition of proliferation (Cell Titer Glo); type: cell-based, human; details: 96h, 100 μg/ml antibody
Protocol: as §6, §7

[21] = tested on: SW480 cells; assay: Inhibition of proliferation (Cell Titer Glo); type: cell-based, human; details: 72h, 100 μg/ml antibody or *100 ng/ml TWEAK
Protocol: as §6, §7

[22] = tested on: WiDr cells; assay: Inhibition of proliferation (Cell Titer Glo); type: cell-based, human; details: 96h, 100 μg/ml antibody, no IFN gamma
Protocol: All cells were seeded in the growth media indicated in Table 21 and for all cells except for WiDr cells 100 ng/ml IFNgamma was added to the assay medium when seeding the cells. […]

[23] = tested on: A375 cells; assay: IL-8 secretion ELISA; type: cell-based, human; details: 100 μg/ml, 24 h
Protocol: Therefore A375 cells were plated at 2500 cells/well in 96well plates in growth medium DMEM (Biochrom;# FG 0435, with stable Glutamin), 10% FCS. 24 h later cells were incubated with anti-TWEAKR antibodies, recombinant human TWEAK at various concentrations as indicated or corresponding isotype control IgG. 24 h after start of the incubation with the antibodies, cell supernatant or dilutions thereof were added to the Capture Elisa Plate of the human CXCL8/IL-8 ELISA Kit (R&D Systems DY208) and incubated over night at 4° C. by shaking 300 rpm. On the next day, samples were analyzed by using the human CXCL8/IL-8-ELISA Kit (R&D Systems DY208) according to the manufacturer's instructions. Optical density was measured at 450 nm (Tecan Spectra, Rainbow) together with background correction. To calculate absolute levels of IL-8 a standard curve using recombinant human IL-8 protein was applied according to the manufacturer's recommendations (R&D Systems).

[24] = biological target: TWEAKR (Homo sapiens, UniProt Q9NP84); details: published data; read-out: KD / binding affinity to TWEAKR (published); cited from earlier work

Molecule: Nc1ccn([C@@H]2O[C@H](CO)[C@@H](O)C2(F)F)c(=O)n1 [Gemcitabine, gemcitabine, reference compound]
- T/C [1]: 0.85
- T/C [2]: 0.07
- T/C [3]: 0.93

Molecule: N.N.[Cl][Pt][Cl] [Oxaliplatin/Cisplatin, cisplatin, reference compound]
- T/C [1]: 1.22
- T/C [4]: 0.85
- T/C [3]: 0.84

Molecule: CNC(=O)c1cc(Oc2ccc(NC(=O)Nc3ccc(Cl)c(C(F)(F)F)c3)c(F)c2)ccn1 [Regorafenib]
- Final T/C [5]: 0.67
- Final T/C [6]: 0.42
- Final T/C [7]: 0.63

- ka ([8]; first order 1:1 binding model): 1e+07 M⁻¹ s⁻¹
- kd ([8]; first order 1:1 binding model): 0.038 s⁻¹
- Kd ([8]; monovalent KD): 3.7 nM
Molecule: PDL-192(TPP-1104): reference agonistic anti-TWEAKR antibody, human IgG1, variable domains from WO2009/020933; SEQ ID NO 127/128 [reference compound]
- GeoMean of Fluorescence minus GeoMean with the secondary antibody only [9]: 25283
- GeoMean of Fluorescence minus GeoMean with the secondary antibody only [10]: 865
- GeoMean of Fluorescence minus GeoMean with the secondary antibody only [11]: 2127
- GeoMean of Fluorescence minus GeoMean with the secondary antibody only [12]: 330
- GeoMean of Fluorescence minus GeoMean with the secondary antibody only [13]: 4053
- GeoMean of Fluorescence minus GeoMean with the secondary antibody only [14]: 3563
- % Inhibition of proliferation [15]: 41%
- % Inhibition of proliferation [16]: 87%
- % Inhibition of proliferation [17]: 62%
- % Inhibition of proliferation [18]: 49%
- % Inhibition of proliferation [19]: 46%
- % Inhibition of proliferation [20]: 44%
- % Inhibition of proliferation [21]: 27%
- % Inhibition of proliferation [22]: 12%
- IL-8 release, % of the activation as compared to 300 ng/ml TWEAK ligand [23]: 66%
- Kd [24]: 5.5 nM
